Where two headings read alike, the source gives them in different places. Where only a bound is given, the exact number is not on record here.

In assay [1] the test system is P. falciparum 3D7 asexual blood stages. In words: Whole-cell time extended asexual growth assay (pLDH). The assay is classed as cell-based. As to conditions: Plasmodium falciparum; for inhibition at 2 µM: primary screen, read-out: %Inh Asex stages @2uM. How it is done: Asexual activity was assayed via Plasmodium lactate dehydrogenase activity (pLDH), a surrogate of asexual parasite growth. […] 2 µM artesunate and DMSO were used as the positive and negative controls, respectively. […] After plate mixing, NBT reduction was measured by absorbance at 650 nm using Envision (Perkin Elmer).

The test system of assay [2] is Stage IV–V 3D7 gametocytes. In words: Gametocytocidal ATP-based bioluminescence assay (GC-ATP). The assay is classed as cell-based, Plasmodium falciparum 3D7. As to conditions: for IC50: Plasmodium falciparum, 3D7, 48h incubation, read-out: Pf late stage gametocyte (ATP depletion) IC50. How it is done:
The metabolic viability of late stage gametocytes was determined using a gametocyte ATP bioluminescence assay. Stage IV–V 3D7 gametocyte cultures were double-purified by density gradient sedimentation over NycoPrep® followed by magnetic isolation. Then, parasites (50 µl per well containing 12,500 gametocytes) were added to compound pre-dispensed 384-well plates (781091, Greiner) and incubated at 37 °C for 48 h under 5% CO2/3% O2/92% N2. BacTiter-Glo® kit (G8231, Promega) was used to determine the ATP levels of viable parasites according to manufacturer’s instructions. After reagent addition (50 µl per well), luminescence of the plates was measured using a microplate reader (HTS counter Victor, Wallac).

In assay [3] the test system is P. falciparum stage V male gametocytes (male gamete formation). In words: P. falciparum dual gamete formation assay (Pf DGFA), male readout (exflagellation), 48 h carry-over format. It is filed as cell-based, Plasmodium falciparum NF54. As to conditions: for IC50 / inhibition at 2 µM: Plasmodium falciparum; for inhibition at 2 µM: primary screen, single replicate.
Assay [4] deals with P. falciparum stage V female gametocytes (female gamete formation). Nature of the assay: P. falciparum dual gamete formation assay (Pf DGFA), female readout (Pfs25 expression), 48 h carry-over format. The assay is classed as cell-based, Plasmodium falciparum NF54. As to conditions: Plasmodium falciparum; for inhibition at 2 µM: primary screen, single replicate.
Setting [5] is: 72h incubation, read-out: Pf Asexual IC50.
The mark [6] stands for this setting: 48 h, dose response retest of primary hits, 48 h incubation, read-out: Male IC50.
The mark [7] stands for this setting: 48h preincubation/carry-over, read-out: Pf DGFA Male IC50.
The mark [8] stands for this setting: 24h preincubation/carry-over, read-out: Pf DGFA Female IC50.
The mark [9] stands for this setting: 48 h, dose response retest of primary hits, 48 h incubation, read-out: Female IC50.
Where [10] appears, read: 48h preincubation/carry-over, read-out: Pf DGFA Female IC50.
Where [11] appears, read: dose response retest, 72 h, read-out: IC50 (µM) Asex stages.

Usually IC50 stands for the concentration that inhibits the measured activity by half. As for `O=S(=O)(NCC1(O)CCOc2ccccc21)c1ccc(Br)s1` (stereo not shown) [DDD01035881], the IC50 in assay [1] (setting [5]) was 17.5 µM; in assay [2] it was > 10 µM; in assay [3] (setting [6]), 0.54 µM; in assay [3] (setting [7]), 0.7 µM; in assay [3] (SAR, Fig. 6 and Fig. 7, read-out: Male IC50), 0.19 µM; in assay [4] (setting [8]), > 12.5 µM. Also, the IC50 is > 10 µM in assay [4] (setting [9]); > 12.5 µM in assay [4] (setting [10]); > 12.5 µM in assay [4] (SAR, Fig. 7, read-out: Female IC50). Moreover, the inhibition at 2 µM was 102% in assay [3] (48 h incubation) and < 30% in assay [4] (48 h incubation).
In the case of `Cc1cccc(NC(=O)c2cccc(OCc3nnnn3C)c2)n1` [DDD01038630], the IC50 was 1.13 µM in assay [1] (setting [5]); 0.963 µM in assay [1] (setting [11]); > 10 µM in assay [2]; > 12.5 µM in assay [3] (setting [7]); > 12.5 µM in assay [4] (setting [8]); > 12.5 µM in assay [4] (setting [10]). The inhibition at 2 µM in assay [1] (72 h) turned out to be 84.5%.
In the case of `CC(c1ccco1)N(C(=O)CNc1ccc(C#N)cc1)C1CC1` (stereo not shown) [DDD01062645], the IC50 in assay [1] (setting [5]) is > 20 µM; in assay [2], > 10 µM; in assay [3] (setting [6]), 0.43 µM; in assay [3] (setting [7]), 2.07 µM; in assay [4] (setting [8]) it was > 12.5 µM; in assay [4] (setting [9]), > 10 µM. In addition, the IC50 in assay [4] (setting [10]) is > 12.5 µM. The values for the inhibition at 2 µM in assay [3] (48 h incubation) and in assay [4] (48 h incubation) were 96% and < 30%, respectively.
Take `Cc1ccc(CN(c2cc(C)nc3nc(C(F)(F)F)nn23)C2CC2)cc1` [DDD01063654]: the IC50 in assay [1] (setting [5]) is 0.33 µM; in assay [1] (setting [11]), 0.324 µM; in assay [2], > 10 µM; in assay [3] (setting [7]) it was > 12.5 µM; in assay [4] (setting [8]), > 12.5 µM; in assay [4] (setting [10]), > 12.5 µM. Besides, the inhibition at 2 µM in assay [1] (72 h) worked out at 73.2%.
As for `Cc1cc(C)c(CNCC(O)c2ccc(F)c(F)c2)c(C)c1.Cl` (stereo not shown) [DDD01065539], the IC50 was 0.17 µM in assay [1] (setting [5]); 0.396 µM in assay [1] (setting [11]); > 10 µM in assay [2]; > 12.5 µM in assay [3] (setting [7]); > 12.5 µM in assay [4] (setting [8]); > 12.5 µM in assay [4] (setting [10]). The inhibition at 2 µM in assay [1] (72 h) was 91.4%.
`CC(NCC1CCN(CCO)CC1)c1ccc(OC(F)(F)F)cc1` (stereo not shown) [DDD01073716]: the IC50 was 10.8 µM in assay [1] (setting [5]); > 10 µM in assay [2]; 7.09 µM in assay [3] (setting [6]); 1.43 µM in assay [3] (setting [7]); > 12.5 µM in assay [4] (setting [8]); > 10 µM in assay [4] (setting [9]). The IC50 in assay [4] (setting [10]) amounted to 4.12 µM. The inhibition at 2 µM in assay [3] (48 h incubation) is 43.9%; in assay [4] (48 h incubation), < 30%.
Turning to `CN(Cc1cccc(F)c1)C(=O)CS(=O)(=O)Cc1c(Cl)cccc1Cl` [DDD01077188], the IC50 in assay [1] (setting [5]) was 0.63 µM; in assay [1] (setting [11]) it was 0.764 µM; in assay [2] it was > 10 µM; in assay [3] (setting [7]), > 12.5 µM; in assay [4] (setting [8]) it was > 12.5 µM; in assay [4] (setting [10]), > 12.5 µM. Besides, the inhibition at 2 µM in assay [1] (72 h) came to 74.2%.
Turning to `CN1CCC(NCC(O)c2cccc(OCc3ccccc3)c2)CC1` (stereo not shown) [DDD01079164], the half-inhibitory concentration (IC50) in assay [1] (setting [5]) is 7.53 µM; in assay [2] it was 6.29 µM; in assay [3] (setting [6]), 5.75 µM; in assay [3] (setting [7]), 0.92 µM; in assay [4] (setting [8]), > 12.5 µM; in assay [4] (setting [9]), > 10 µM. Moreover, the IC50 in assay [4] (setting [10]) stood at 3.12 µM. The inhibition at 2 µM in assay [3] (48 h incubation) is 45.7%; in assay [4] (48 h incubation) it was < 30%.
Take `CNc1cc(C)nc(NC2CCCN(C3Cc4ccccc4C3)C2)n1` (stereo not shown) [DDD01243506]: the IC50 in assay [1] (setting [11]) is 1.07 µM; in assay [1] (profiling / reconfirmation, read-out: Pf asexual IC50), 0.66 µM; in assay [2], > 10 µM; in assay [3] (setting [7]) it was > 12.5 µM; in assay [4] (setting [8]) it was > 12.5 µM; in assay [4] (setting [10]), > 12.5 µM. Besides, the inhibition at 2 µM in assay [1] (72 h) came out at 97.1%.
Regarding `OC1(CN2CCC(Oc3cccc(C(F)(F)F)c3)CC2)CCNC1` (stereo not shown) [DDD01245291], the IC50 in assay [1] (setting [5]) is 6.66 µM; in assay [2], > 10 µM; in assay [3] (setting [6]), 3.05 µM; in assay [3] (setting [7]), 1.11 µM; in assay [4] (setting [8]) it was > 25 µM; in assay [4] (setting [9]) it was 5.78 µM. Further, the IC50 in assay [4] (setting [10]) amounted to 4.13 µM. Also, the inhibition at 2 µM is 48.3% in assay [3] (48 h incubation) and < 30% in assay [4] (48 h incubation).
`CC(c1cccs1)N(C)Cc1cnc(-c2ccccn2)nc1` (stereo not shown) [DDD01246628]: the IC50 was 4.75 µM in assay [1] (setting [5]); 2.31 µM in assay [2]; 2.54 µM in assay [3] (setting [6]); 1.17 µM in assay [3] (setting [7]); > 25 µM in assay [4] (setting [8]); 5.32 µM in assay [4] (setting [9]). Further, the IC50 in assay [4] (setting [10]) is > 25 µM. The values for the inhibition at 2 µM in assay [3] (48 h incubation) and in assay [4] (48 h incubation) were 67.8% and 41.9%, respectively.
On to `CC(C)CN1CCn2nc(CNc3ncnc4[nH]ccc34)cc2C1` [DDD01249504], for which the IC50 was > 20 µM in assay [1] (setting [5]); > 10 µM in assay [2]; 2.27 µM in assay [3] (setting [6]); 1.66 µM in assay [3] (setting [7]); 0.381 µM in assay [3] (240 h, resynthesized, aged 10 days at room temperature in the light, read-out: IC50 in Pf DGFA after aging); > 25 µM in assay [4] (setting [8]). For the same compound, the IC50 in assay [4] (setting [9]) was > 10 µM; in assay [4] (setting [10]) it was > 25 µM. Also, the values for the inhibition at 2 µM in assay [3] (48 h incubation) and in assay [4] (48 h incubation) were 52.1% and < 30%, respectively. Further, the “activity in the Pf DGFA” value in assay [3] (freshly resynthesized compound) was “inactive”. In addition, the “activity in Pf DGFA after aging” value in assay [3] (resynthesized, incubated in the dark at 37 °C) is “inactive”. Further, in assay [3] (resynthesized, untreated compound), the “activity in Pf DGFA” value is “inactive”.
As for `CCCn1nccc1C(=O)N1CCN(C2CCc3ccccc3C2)CC1` (stereo not shown) [DDD01251134], the IC50 is 1.01 µM in assay [1] (setting [5]); 0.969 µM in assay [1] (setting [11]); > 10 µM in assay [2]; > 12.5 µM in assay [3] (setting [7]); > 12.5 µM in assay [4] (setting [8]); > 12.5 µM in assay [4] (setting [10]). Besides, the inhibition at 2 µM in assay [1] (72 h) worked out at 58.4%.
As to `Cc1nn(C)c(Oc2ccc(Cl)cc2)c1CN1CCC(CN)C1` (stereo not shown) [DDD01254274], the IC50 in assay [1] (setting [5]) was > 20 µM; in assay [2], 6.86 µM; in assay [3] (setting [6]) it was 4.08 µM; in assay [3] (setting [7]) it was 2.25 µM; in assay [4] (setting [8]) it was > 25 µM; in assay [4] (setting [9]), > 10 µM. For the same compound, the IC50 in assay [4] (setting [10]) was > 25 µM. For the same compound, the results for the inhibition at 2 µM in assay [3] (48 h incubation) and in assay [4] (48 h incubation) were 53.1% and < 30%, respectively.
For the compound `CCc1ccc(C2c3nc[nH]c3CCN2Cc2nccn2CC)nc1` (stereo not shown) [DDD01254473], the IC50 in assay [1] (setting [5]) was > 20 µM; in assay [2], 0.53 µM; in assay [3] (setting [6]), > 10 µM; in assay [3] (setting [7]), 3.96 µM; in assay [4] (setting [8]), > 25 µM; in assay [4] (setting [9]), 2.79 µM. Further, the IC50 in assay [4] (setting [10]) is 0.167 µM. Further, the “activity in the GC-ATP assay” value in assay [2] (profiling) is listed as “submicromolar”. Besides, the inhibition at 2 µM in assay [3] (48 h incubation) is < 30%; in assay [4] (48 h incubation), 30.5%.
With `CCOc1ccc2ccccc2c1CNCC1CCNCC1.Cl.Cl` [DDD01255740], the IC50 in assay [1] (setting [5]) is 3.56 µM; in assay [2], > 10 µM; in assay [3] (setting [6]), 4.4 µM; in assay [3] (setting [7]), 0.41 µM; in assay [4] (setting [8]), > 25 µM; in assay [4] (setting [9]) it was > 10 µM. Besides, the IC50 in assay [4] (setting [10]) is 1.88 µM. Further, the inhibition at 2 µM in assay [3] (48 h incubation) is 35.6%; in assay [4] (48 h incubation), < 30%.

(Values after paper PMC6143625, “A high throughput screen for next-generation leads targeting malaria parasite transmission” (Nature Communications, 2018).)
